The target of test [1] is T1, MOX-1 β-lactamase (Klebsiella pneumoniae, UniProt Q51578). Put plainly: Inhibition of cephalothin hydrolysis by purified MOX-1, […] min pre-incubation, UV/VIS (Ki and IC50). It is filed as biochemical. Further details: gene blaMOX-1; purified MOX-1, (His)8 tag removed with thrombin.
In test [2] the target is T1, MOX-1 β-lactamase. Put plainly: X-ray crystal structure at […] Å; also Ki and IC50 with purified enzyme (cephalothin hydrolysis). Further details: gene blaMOX-1; N-terminal (His)8-tagged MOX-1 for crystals (model Asp6-Arg305 and Gln310-Gly362); tag removed with thrombin for kinetics. It is filed as biochemical.

T1 sequence (Q51578 entry or part of it): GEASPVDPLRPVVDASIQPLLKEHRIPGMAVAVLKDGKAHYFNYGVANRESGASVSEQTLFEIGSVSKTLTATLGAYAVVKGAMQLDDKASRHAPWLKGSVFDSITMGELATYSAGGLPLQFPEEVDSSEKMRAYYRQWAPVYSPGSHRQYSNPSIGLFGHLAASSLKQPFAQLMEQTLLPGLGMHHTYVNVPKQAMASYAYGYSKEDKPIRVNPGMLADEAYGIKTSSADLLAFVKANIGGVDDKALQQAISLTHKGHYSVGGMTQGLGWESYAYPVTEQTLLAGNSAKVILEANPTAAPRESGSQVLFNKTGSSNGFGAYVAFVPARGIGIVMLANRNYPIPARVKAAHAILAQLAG

Broadly, the Ki is a measure of affinity in units of concentration, obtained from inhibition or displacement. Read a high Ki as lower affinity. With `C[C@H]1[C@H](NC(=O)/C(=N\OC(C)(C)C(=O)O)c2csc(N)n2)C(=O)N1S(=O)(=O)O` [Aztreonam], in test [1], the inhibition constant (Ki) worked out at 10 ± 1 nM.
In test [2], `O=C(Cc1cccs1)N[C@@H](Cn1cc(C(=O)O)nn1)B(O)O` [S02030] returned a Ki of 560 ± 30 nM.

Source of the values: article PMC8713471, “Insights Into the Inhibition of MOX-1 β-Lactamase by S02030, a Boronic Acid Transition State Inhibitor” (Frontiers in Microbiology, 2021).
